Source: patent US20150011740A1, “FLUORINE-CONTAINING WATER SOLUBLE PLATINUM COMPLEXES FOR TUMOR TREATMENT AND PROCESS OF PREPARING SAME” (GUDUI BIOPHARMA TECHNOLOGY INC., priority 2011, published 2015)
Read-outs that look alike come from different tables or passages of the source.

Assays:
[1] = background data of clinical drugs; cited from earlier work
[2] = Experiment-1: solubility in water at room temperature
[3] = system: L1210 tumor cells; test: Experiment-3: antitumor efficacy in L1210 tumor-bearing CDF1 mice (ILS); format: in vivo; details: for Weight Changes: first day to seventh day
Description: In the following test, antitumor efficacy studies were performed using 8-9 weeks old female CDF1 mice, the average weight of the animal is 20-25 grams (The experimental animals were purchased from Vital River Laboratory Animal Technology Co. Ltd.). L1210 tumor cells (about 10^5 cells per mouse) were inoculated intraperitoneally. The fluorine-containing water-soluble platinum complexes were used to treat the tumor-bearing animals and the efficacy was compared with the clinical platinum antitumor drugs. […] Drugs were administered intraperitoneally on day 1 and day 4 after tumor cell transplantation. The number of experimental animals in each group was 6.
The increase in life span (ILS) is calculated as follows:
Wherein, St=the weighted median survival time of treated animals; Su=the weighted median survival time of untreated animals

[4] = physchem; details: buffer, pH 7
[5] = Experiment-2: stability, half-life in phosphate buffer (PBS) pH 7 at room temperature; details: phosphate buffer (PBS) pH 7, room temperature
[6] = buffer, pH 7
[7] = 1.25 mg/Kg i.p. day 1 and day 4

For `N.N.O=C([O-])C1(C(=O)[O-])CCC1.[Pt+2]` [Carboplatin, carboplatin], the “Water Solubility” value [1] is listed as 17.0 mg/mL, the solubility [2] is listed as 17.0 mg/1 mL H2O and the ILS ([3]; 20 mg/Kg i.p. day 1 and day 4) is listed as 10%. For the same compound, the “Survival Animals on Day 42” value ([3]; 20 mg/Kg i.p. day 1 and day 4) was 0/6, the “Weight Changes” value ([3]; 20 mg/Kg i.p. day 1 and day 4) was “+0 g” and the ILS ([3]; 40 mg/Kg i.p. day 1 and day 4) was 24%. For the same compound, the “Survival Animals on Day 42” value ([3]; 40 mg/Kg i.p. day 1 and day 4) was 0/6, the “Weight Changes” value ([3]; 40 mg/Kg i.p. day 1 and day 4) was -0.3 g and the ILS ([3]; 80 mg/Kg i.p. day 1 and day 4) was 55%. For the same compound, the “Survival Animals on Day 42” value ([3]; 80 mg/Kg i.p. day 1 and day 4) was 0/6 and the “Weight Changes” value ([3]; 80 mg/Kg i.p. day 1 and day 4) was -1.2 g.
For `N.N.[Cl][Pt][Cl]` [Cisplatin, cisplatin], the ILS [3, 7] was 36%, the “Survival Animals on Day 42” value [3, 7] was 0/6 and the ILS ([3]; 2.5 mg/Kg i.p. day 1 and day 4) was 100%. The “Survival Animals on Day 42” value ([3]; 2.5 mg/Kg i.p. day 1 and day 4) was 0/6 and the “Survival Animals on Day 42” value ([3]; 5.0 mg/Kg i.p. day 1 and day 4) was 3/6.
For `[NH2][Pt]1([NH2])[O]C(=O)C(F)(CCOC2O[C@H](CO)[C@@H](O)[C@H](O)[C@H]2O)C(=O)[O]1` (stereo partly drawn) [Example 3, diamine Pt (II) (1-O-D-glucoside-propane-3-fluoro-3,3-dicarboxylate)], the half-life [4] was 52 h.
`O=C1[O][Pt]([NH]C2CC2)([NH]C2CC2)[O]C(=O)C1(F)CCOC1O[C@H](CO)[C@@H](O)[C@H](O)[C@H]1O` (stereo partly drawn) [Example 17, dicyclopropylamino platinum (II) (1-O-D-glucoside-propane-3-fluoro-3,3-dicarboxylate)] gave a half-life [4] of 62 h.
Compound `O=C1[O][Pt]2([NH][C@@H]3CCCC[C@H]3[NH]2)[O]C(=O)C1(F)COC1O[C@H](CO)[C@@H](O)[C@H](O)[C@H]1O` (stereo partly drawn) [Example 23, cis-[trans-(1R,2R)-diaminocyclohexane]platinum (II) (1-O-D-glucoside-ethane-2-fluoro-2,2-dicarboxylate)] has a half-life [4] of 89 h.
Compound `[NH2][Pt]1([NH2])[O]C(=O)C(F)(COC2O[C@H](CO)[C@@H](O)[C@H](O)[C@H]2O)C(=O)[O]1` (stereo partly drawn) [Example 24, diamine platinum (II) (1-O-D-glucoside-ethane-2-fluoro-2,2-dicarboxylate)] has a half-life [4] of 73 h.
`O=C1[O][Pt]2([NH][C@@H]3CCCC[C@H]3[NH]2)[O]C1=O` [Oxaliplatin, oxaliplatin] gave a half-life [5] of 24 h.
Work on “cis-[trans-(1R,2R)-diaminocyclohexane] Pt (II) (1-O-D-glucoside-propane-3-fluoro-3,3-dicarboxylate) [Example 1]” yielded a half-life [5] of 44 h.
Compound “cis-[trans-(1R,2R)-diaminocyclohexane] Pt (II) (1-O-D-mannoside-propane-3-fluoro-3,3-dicarboxylate) [Example 9]” has a half-life [6] of 48 h.
